Assay results reported in patent US11773063B1, “Pharmaceutically acceptable salts and compositions thereof” (priority 2022, dated 2023).
Counter-ions that a name gives are not always drawn.

What was measured:
[1] = Polymorph assessment, slurry maturation in 10 solvents between 5 and 50° C.; assay type: physicochemical; set-up: key to Observation at 50° C. / Observation at 5° C.: ✓ = solution; ✓/X = turbid solution; X = suspension; conditions: for dissolution in 10 volumes of solvent: 10 solvents, 5-50° C., 24 hours
Method: (§1) DR-2186-45-01 (20 mg, PHO Pattern 1+Extra Peaks) was weighed into 10 HPLC vials. To this was added 10 volumes (200 μL) of solvent, a stirrer bar and the samples heated to 50° C. on a Polar Bear heat/cool block (400 RPM). After holding at 50° C. for 30 minutes and observation was made and the samples cooled to 5° C. where a further observation was made. All samples were than subjected to heat/cool cycles between 5 and 50° C. holding for 4 hours at each temperature for 24 hours.
A polymorph assessment was carried out in 10 different solvents using PHO Pattern 1+extra peaks as the input material, maturating a slurry of the salt between 5° C. and 50° C. for 24 hours. The results of the XRPD analysis of the samples can be seen in FIG. 118. The isolated solid was the same as the input material in all cases other than MeOH.
as §1, with “DR-2186-46-01” for “DR-2186-45-01”, “TAR” for “PHO”, “1)” for “1+Extra Peaks)”
A polymorph assessment was carried out in 10 different solvents, maturating a slurry of the salt between 5° C. and 50° C. for 24 hours.

[2] = Dissolution in hot MeOH (phosphate re-crystallisation); assay type: physicochemical; set-up: key to Observation (sample dissolution in hot MeOH): ✓ = solution; ✓/X = turbid solution; X = suspension
[3] = assay type: physicochemical; conditions: 40° C./75% RH, three days
Method: Physical Stability of Salts
Physical stability stress tests were conducted on generated crystalline salts at controlled temperature and relative humidity. The powder samples were stored at 40° C./75% RH for three days. After this time samples were analysed by XRPD to see whether the physical state of salts changed during the storage.

[4] = Thermo-Gravimetric Analysis (TGA), thermal stability; conditions: for thermal stability up to (TGA): nitrogen
Method: Thermo—Gravimetric Analysis (TGA)
TGA thermograms were obtained with a TA Instrument Discovery 550 in Al pans. The heating rate used was 10° C./min linear ramp from 25 to 400° C. with a nitrogen purging at a rate of 60 ml/min. TGA thermograms were analysed using TRIOS software.

[5] = Storage at 40° C./75% RH and 25° C./97% RH for 7 days, XRPD and HPLC (Example 3); assay type: physicochemical
Method: FIG. 128. XRPD diffractogram overlay of 5-MeO-DMT Phosphate Pattern 1 before and after storage at 25° C./97% RH and 40° C./75% RH for 7 days.
FIG. 139. XRPD diffractogram overlay of 5-MeO-DMT Tartrate Pattern 1 before and after storage at 25° C./97% RH and 40° C./75% RH for 7 days.
The sample is classed as slightly hygroscopic with a total reversible mass change of 0.3 wt. % between 0-90% RH. The DVS isotherm and DVS kinetic plot can be seen in FIGS. 124 and 125, respectively. The solid form was unchanged after a double-cycle experiment, the XRPD analysis confirming this can be seen in FIG. 126.
The sample is classed as slightly hygroscopic with a total reversible mass change of 0.6 wt. % between 0-90% RH (FIG. 135). The solid-form was unchanged after the double-cycle experiment (FIG. 136).

[6] = DVS double-cycle experiment (Example 3); assay type: physicochemical
[7] = Dynamic Vapor Sorption (DVS), salt screen and scale-up salts; assay type: physicochemical; conditions: for hygroscopicity class: DVS, 25° C.
Method: Dynamic Vapor Sorption (DVS)
DVS analyses were performed on TA Instrument DVS Q5000. Samples were added to a pre-tared metallised quartz crucible and run at 25° C. from 40% RH to 90% RH, down to zero and back to 40%. This cycle was repeated in increments of 10% RH.

[8] = 5-MeO-DMT phosphate, input DR-2186-45-01 (PHO Pattern 1+Extra Peaks), 20 mg in 10 volumes, solvent per sample: -01 MeOH, -02 Acetone, -03 CAN, -04 IPA:Water 9:1, -05 2-MeTHF, -06 EtOAc, -07 Ethanol, -08 Toluene, -09 MEK, -10 TBME

In the case of `COc1ccc2[nH]cc(CCN(C)C)c2c1` [DR-2186-45-01, 5-MeO-DMT phosphate], the “dissolution in 10 volumes of solvent” value ([1]; listed as PHO Pattern 1+Extra Peaks) is reported as “Non of the samples completely dissolved”, the “Observation (sample dissolution in hot MeOH)” value ([2]; 5 volumes of MeOH, 50° C., 1.00 g PHO Pattern 1+extra peaks) is reported as “X” and the “Observation (sample dissolution in hot MeOH)” value ([2]; 8 volumes of MeOH, 50° C.) is reported as “X”. The “Observation (sample dissolution in hot MeOH)” value ([2]; 12 volumes of MeOH, 50° C.) was “X”, the “Observation (sample dissolution in hot MeOH)” value ([2]; 16 volumes of MeOH, 50° C.) was “X” and the “Observation (sample dissolution in hot MeOH)” value ([2]; 18 volumes of MeOH, 50° C.) was “X”. For the same compound, the “Observation (sample dissolution in hot MeOH)” value ([2]; 18 volumes of MeOH, 60° C.) was “X”, the “Observation (sample dissolution in hot MeOH)” value ([2]; 20 volumes of MeOH, 60° C., 150 RPM, Easymax vessel overhead stirring) was “X” and the “Observation (sample dissolution in hot MeOH)” value ([2]; 20 volumes of MeOH, 60° C., scintillation vial) was “X”. For the same compound, the “Observation (sample dissolution in hot MeOH)” value ([2]; 22 volumes of MeOH, 60° C., Easymax vessel overhead stirring) was “X”, the “Observation (sample dissolution in hot MeOH)” value ([2]; 24 volumes of MeOH, 60° C., Easymax vessel overhead stirring) was “✓/X” and the “Observation (sample dissolution in hot MeOH)” value ([2]; 25 volumes of MeOH, 60° C., 250 RPM, Easymax vessel overhead stirring) was “✓”. The “volumes of MeOH at which dissolution was achieved” value ([2]; MeOH at 60° C., 1.00 g) was 25 volumes.
For `COc1ccc2[nH]cc(CCN(C)C)c2c1.O=P(O)(O)O` [DR-2186-52-02], the “Observation at 5° C.” value [1, 8] was “X” and the “Observation at 50° C.” value [1, 8] was “X”.
For `COc1ccc2[nH]cc(CCN(C)C)c2c1.O=C(O)CC(O)C(=O)O` [Malate salt, 5-MeO-DMT malate], the “crystalline form after storage (XRPD)” value [3] was “conversion to a “gum” material” and the “thermal stability up to (TGA)” value ([4]; 10° C./min) was “around 170 °C”.
For `COc1ccc2[nH]cc(CCN(C)C)c2c1` [Tartrate Pattern 1, 5-MeO-DMT tartrate], the “change by XRPD or HPLC after storage” value ([5]; 25° C./97% RH) was “no change”, the “Static Storage 7 days - 40° C./75% RH, XRPD” value ([5]; 40° C./75% RH) was “KRPD-TAR Pattern 1” and the “change by XRPD or HPLC after storage” value ([5]; 40° C./75% RH) was “no change”. For the same compound, the “Static Storage 7 days - 40° C./75% RH, HPLC” value ([5]; 40° C./75% RH, HPLC purity) was “HPLC-97.8%”, the “solid form after double-cycle DVS experiment (XRPD)” value [6] was “unchanged” and the “total reversible mass change between 0-90% RH” value ([6]; DVS) was 0.6 wt. %. For the same compound, the hygroscopicity class ([6]; DVS 0-90% RH, Example 3) was “slightly hygroscopic (Pharmaceuticals that pick up between 0.2% and 2.0% moisture at 80% RH are considered slightly hygroscopic)”, the “GVS total mass change as mol eq. water” value ([6]; from 0-90% RH) was “RH (0.12 mol eq. of water) and is reversible with mol eq. water” and the “GVS total mass change” value ([6]; from 0-90% RH, double cycle) was “Total mass change of 0.58 wt. % from 0-90%”. The “Solid form of the material after GVS by XRPD” value ([6]; post GVS) was “unchanged by XRPD”, the “dissolution in 10 volumes of solvent” value [1] was “No dissolution was observed” and the “TGA mass loss before decomposition” value [4] was “No mass loss observed in sample before”. The “start of decomposition / complete mass loss (TGA)” value ([4]; 10° C./min) was 175 °C.
With `COc1ccc2[nH]cc(CCN(C)C)c2c1` [Tartrate salt, 5-MeO-DMT tartrate] the “change of crystalline form during the DVS experiment (DVS / post-DVS XRPD)” value [7] was “did not undergo any solid form transformation”, the hygroscopicity class [7] was “moderately hygroscopic (Pharmaceuticals that pick up between 2.0% and 15.0% moisture at 80% RH are considered moderately hygroscopic)” and the hygroscopicity class ([7]; listed as tartrate salt) was “moderately hygroscopic (Pharmaceuticals that pick up between 2.0% and 15.0% moisture at 80% RH are considered moderately hygroscopic)”. The “crystalline form after storage (XRPD)” value [3] was “No change in the crystalline form” and the “thermal stability up to (TGA)” value ([4]; 10° C./min) was “around 170 °C”.
With `COc1ccc2[nH]cc(CCN(C)C)c2c1` [Tosylate salt, 5-MeO-DMT tosylate] the “change of crystalline form during the DVS experiment (DVS / post-DVS XRPD)” value [7] was “did not undergo any solid-state changes”, the hygroscopicity class [7] was “slightly hygroscopic (Pharmaceuticals that pick up between 0.2% and 2.0% moisture at 80% RH are considered slightly hygroscopic)” and the “crystalline form after storage (XRPD)” value [3] was “identical XRPD pattern as the input material”.
